According to patent publication US20250328351A1, “CARBONIC ANHYDRASE INHIBITORS AND ANTIBIOTICS AGAINST MULTIDRUG RESISTANT BACTERIA” (Purdue Research Foundation, priority 2018, published 2025):
≈ marks a conversion by molar mass, not a printed value. Where two headings read alike, the source gives them in different places.

Legend:
[1] = tested on: Enterococcus faecalis S613 HM-334; assay: MIC, broth microdilution (CLSI); assay type: cell-based; settings: Enterococcus faecalis, read-out: MIC
Description: The minimum inhibitory concentrations (MICs) of the compounds and control drugs were determined using the broth microdilution method, according to guidelines outlined by the Clinical and Laboratory Standards Institute (CLSI). Enterococci strains were grown aerobically overnight on tryptone soya agar plates at 37° C., afterwards a bacterial solution equivalent to 0.5 McFarland standard was prepared and diluted in tryptone soy broth (TSB) to achieve a bacterial concentration of about 5×10^5 CFU/mL and seeded in 96-well well plates. Compounds and control drugs were added in the first row of the 96-well plates and serially diluted along the plates. Plates were then incubated aerobically at 37° C. for 18-20 hours. MICs reported in Table 1 are the minimum concentration of the compounds/control drugs that could inhibit completely the visual growth of the bacteria.
The minimum inhibitory concentrations (MICs) of CAIs were tested against clinical isolates of vancomycin sensitive and vancomycin resistant Enterococci strains as per the guidelines provided by the Clinical and Laboratory Standards Institute (CLSI). The selected strains of Enterococci were streaked on Tryptic Soy Agar (TSA) plates and let grow for 24 hours at 37° C. Afterwards, a bacterial solution equivalent to 0.5 McFarland standard was prepared and diluted in tryptone soy broth (TSB) or brain heart infusion broth (BHIB) to achieve a bacterial concentration of about 5×10^5 CFU/mL and seeded in 96-well well plates. Compounds and control drugs were added in the first row of the 96-well plates and serially diluted along the plates. Plates were then incubated aerobically at 37° C. for 18-20 hours. MICs reported in Table 5 are the minimum concentration of the compounds/control drugs that could inhibit completely the visual growth of the bacteria.
The minimum inhibitory concentrations (MICs) of CAIs were tested against vancomycin resistant Enterococcus faecalis—S613 HM 334 strain as per the guidelines provided by the Clinical and Laboratory Standards Institute (CLSI). The selected strain was streaked on Tryptic Soy Agar (TSA) plate and let grow for 24 hours at 37° C. […] Compounds and control drugs were added in the first row of the 96-well plates and serially diluted along the plates. Plates were then incubated aerobically at 37° C. for 18-20 hours. MICs reported in table (6) are the minimum concentration of the compounds/control drugs that could inhibit completely the visual growth of the bacteria.

[2] = tested on: Bacteroides dorei CL02T12C06 HM-719; assay: MIC against human normal gut microbiota; assay type: cell-based; settings: Phocaeicola dorei; Table 3; BHIS broth, anaerobic, 48 hours; read-out: MIC
Description: (§1) Three different bacterial strains were used in this experiment; Bifidobacterium (anaerobic Gram positive bacteria), Bacteroides (anaerobic Gram negative bacteria) and Lactobacillus (microaerophilic Gram positive bacteria). Bifidobacterium and Bacteroides were first grown for 48 hours at 37° C., anaerobically using brain heart infusion supplemented (BHIS) agar (Brain heart infusion agar supplemented with hemin, vitamin K and L-cysteine). Lactobacillus was cultivated on MRS agar and incubated in presence of 5% CO2 for 48 hours at 37° C. Each bacterium was suspended in phosphate buffered saline (PBS) to produce a suspension with optical density that matches 0.5 McFarland standard and diluted in brain heart infusion supplemented broth (for Bifidobacterium and Bacteroides) or in MRS broth (for Lactobacillus) to achieve bacterial concentration of approximately 5×10^5 CFU/ml. Bacteria were then seeded in 96-well plates containing serial dilutions of the compounds and incubated as mentioned previously for 48 hours.

[3] = tested on: Bacteroides fragilis CL07T00C01 HM-709; assay: MIC against human normal gut microbiota; assay type: cell-based; settings: Table 3, BHIS broth, anaerobic, 48 hours, read-out: MIC
Description: as §1

[4] = tested on: Bifidobacterium breve JCP7499 HM 1120; assay: MIC against human normal gut microbiota; assay type: cell-based; settings: JCP7499HM1120, Table 3, BHIS broth, anaerobic, 48 hours, read-out: MIC
Description: as §1

[5] = tested on: VERO cells; assay: In vitro cytotoxicity, MTS assay; assay type: cell-based, monkey; settings: concentration up to 128 μg/mL; two hours incubation
Description: Toxicity assessment: Compounds AS005H, AS005J, AS004B, AS005K, AS005A and 005D were assayed (at concentrations of 64 and 128 μg/mL) against a fibroblast-like monkey kidney cell line (VERO cell) to determine the potential toxic effect in vitro. Briefly, cells were cultured in Minimum Essential Medium (MEM) supplemented with 10% fetal bovine serum (FBS), 1 mM sodium pyruvate, and penicillin-streptomycin at 37° C. with CO2 (5%). Control cells received DMSO alone at a concentration equal to that in drug-treated cell samples. The cells were incubated with the compounds (in triplicate) in a 96-well plate at 37° C. with CO2 (5%) for two hours. The assay reagent MTS 3-(4,5-dimethylthiazol-2-yl)-5-(3-carboxymethoxyphenyl)-2-(4-sulfophenyl)-2H-tetrazolium) (Promega, Madison, WI, USA) was subsequently added and the plate was incubated for four hours. Absorbance readings (at OD490) were taken using a kinetic microplate reader (Molecular Devices, Sunnyvale, CA, USA). The quantity of viable cells after treatment with each compound was expressed as a percentage of the viability of DMSO-treated control cells (average of triplicate wells±standard deviation). The toxicity data was analyzed via a two-way ANOVA, with post hoc Dunnet's multiple comparisons test (P<0.05), utilizing GraphPad Prism 6.0 (GraphPad Software, La Jolla, CA).
(§2) Percent viable mammalian cells (measured as average absorbance ratio (test agent relative to DMSO) for cytotoxicity analysis of compounds AS005H, AS005J, AS004B, AS005K, AS005A and 005D (tested in triplicates) at 64 and 128 μg/mL against VERO cells using the MTS 3-(4,5-dimethylthiazol-2-yl)-5-(3-carboxymethoxyphenyl)-2-(4-sulfophenyl)-2H-tetrazolium) assay. Dimethyl sulfoxide (DMSO) was used as a negative control to determine a baseline measurement for the cytotoxic impact of each compound. The absorbance values represent an average of a minimum of three samples analyzed for each compound. Error bars represent standard deviation values for the absorbance values.

[6] = tested on: Caco-2 cells; assay: In vitro cytotoxicity, MTS assay; settings: concentration up to 128 μg/mL; two hours incubation
Description: Method: Compounds AS005H, AS005J, AS004B, AS005K, AS005A and 005D were assayed (at concentrations of 64 and 128 μg/mL) against a human colorectal adenocarcinoma (Caco-2) cell to determine the potential toxic effect to mammalian cells in vitro. Briefly, cells were cultured in Dulbecco's Modified Eagle Medium (DMEM) supplemented with 20% fetal bovine serum (FBS), non-essential amino acids (1×), penicillin-streptomycin at 37° C. with CO2 (5%). Control cells received DMSO alone at a concentration equal to that in drug-treated cell samples. The cells were incubated with the compounds (in triplicate) in a 96-well plate at 37° C. with CO2 (5%) for two hours. The assay reagent MTS 3-(4,5-dimethylthiazol-2-yl)-5-(3-carboxymethoxyphenyl)-2-(4-sulfophenyl)-2H-tetrazolium) (Promega, Madison, WI, USA) was subsequently added and the plate was incubated for four hours. Absorbance readings (at OD490) were taken using a kinetic microplate reader (Molecular Devices, Sunnyvale, CA, USA). The quantity of viable cells after treatment with each compound was expressed as a percentage of the viability of DMSO-treated control cells (average of triplicate wells±standard deviation). The toxicity data was analyzed via a two-way ANOVA, with post hoc Dunnet's multiple comparisons test (P<0.05), utilizing GraphPad Prism 6.0 (GraphPad Software, La Jolla, CA).
as §2, with “of” for “of compounds”, “005D compounds” for “005D”, “triplicate)” for “triplicates)”, “Caco-2” for “VERO”, “values. A two-way ANOVA, with post hoc Dunnet's multiple comparisons test, determined statistical difference (denoted by the asterisk) (P<0.05) between the values obtained for each compound and DMSO (negative control, used as solvent for the compounds).” for “values.”

MIC ([1]; S613HM334, Table 1, TSB)	MIC ([1]; S613HM334, Table 7, TSB)	MIC ([1]; S613HM334, Table 6, TSB in presence of 4% human serum albumin)	Compound	MIC [2]	MIC [3]	MIC [4]	toxicity to VERO cells (percent viable cells, MTS) [5]	toxicity to Caco-2 cells (percent viable cells, MTS) [6]
2 µg/mL (≈ 7.99 µM)	2 µg/mL (≈ 7.99 µM)		CC(C)C(=O)Nc1nnc(S(N)(=O)=O)s1 [CAI0011, N-(5-Sulfamoyl-1,3,4-thiadiazol-2-yl)isobutyramide]	> 64 µg/mL	> 64 µg/mL	> 64 µg/mL	non-toxic	non-toxic
0.5 µg/mL (≈ 1.89 µM)	0.125 µg/mL (≈ 0.473 µM)	> 256 µg/mL	CC(C)(C)C(=O)Nc1nnc(S(N)(=O)=O)s1 [CAI0010, N-(5-Sulfamoyl-1,3,4-thiadiazol-2-yl)pivalamide]	> 64 µg/mL	> 64 µg/mL	> 64 µg/mL	non-toxic	non-toxic
